Laboratory results published in patent US20200237759A1, “DOSAGE REGIME AND METHOD FOR TREATING PULMONARY ARTERIAL HYPERTENSION” (Altavant Sciences GmbH, priority 2019, published 2020).

Assay: Part 2 MAD plasma pharmacokinetics, BID oral KAR5585 for 14 days
Details: for tmax: Median
[1] = 100 mg (Cohort 2) to 400 mg (Cohort 4) BID fed, 4-fold increase in dose
[2] = 100 mg BID fasted, Cohort 1, Day 1 AM, Mean
[3] = 100 mg BID fasted, Cohort 1, Day 14, Mean
[4] = 100 mg BID fed, Cohort 2, Day 1 AM, Mean
[5] = 100 mg BID fed, Cohort 2, Day 1 PM, Geo. Mean
[6] = 100 mg BID fed, Cohort 2, Day 1 PM, Mean
[7] = 100 mg BID fed, Cohort 2, Day 7 AM, Geo. Mean
[8] = 100 mg BID fed, Cohort 2, Day 7 AM, Mean
[9] = 100 mg BID fed, Cohort 2, Day 7 PM, Geo. Mean
[10] = 100 mg BID fed, Cohort 2, Day 14 AM, Geo. Mean
[11] = 100 mg BID fed, Cohort 2, Day 14 AM, Mean
[12] = 100 mg KAR5585 BID, fasted (Part 2, Cohort 1)
[13] = 200 mg BID fed, Cohort 3, Day 1 AM, Geo. Mean
[14] = 200 mg BID fed, Cohort 3, Day 1 PM, Geo. Mean
[15] = 200 mg BID fed, Cohort 3, Day 7 AM, Geo. Mean
[16] = 200 mg BID fed, Cohort 3, Day 7 AM, Mean
[17] = 200 mg BID fed, Cohort 3, Day 7 PM, Geo. Mean
[18] = 200 mg BID fed, Cohort 3, Day 7 PM, Mean
[19] = 200 mg BID fed, Cohort 3, Day 14 AM, Geo. Mean
[20] = 200 mg BID fed, Cohort 3, Day 14 AM, Mean
[21] = 400 mg BID fed, Cohort 4, Day 1 AM, Geo. Mean
[22] = 400 mg BID fed, Cohort 4, Day 1 PM, Geo. Mean
[23] = 400 mg BID fed, Cohort 4, Day 7 AM, Geo. Mean
[24] = 400 mg BID fed, Cohort 4, Day 7 PM, Geo. Mean
[25] = 400 mg BID fed, Cohort 4, Day 7 PM, Mean
[26] = 400 mg BID fed, Cohort 4, Day 14 AM, Geo. Mean
[27] = 400 mg BID fed, Cohort 4, Day 14 AM, Mean

Description: Food effect was to be evaluated in Part 1, Period 2.
Part 2 (MAD): BID doses (separated by approximately 12 hours on Days 1 to 13) and a single AM dose on Day 14. One or more of the MAD Cohort could have been dosed once daily (QD).
Pharmacokinetic data were to be summarized descriptively.

In the case of `Nc1nc(O[C@H](c2ccc(Cl)cc2-c2ccccc2)C(F)(F)F)cc(N2CCC3(CC2)CN[C@H](C(=O)O)C3)n1` [KAR5417, (S)-8-(2-amino-6-((R)-1-(5-chloro-[1,1′-biphenyl]-2-yl)-2,2,2-trifluoroeth-oxy)pyrimidin-4-yl)-2,8-diazaspiro[4.5]decane-3-carboxylic acid], the “increase in mean AUC0-12, Day 1” value [1] is reported as 7.0 fold, the “increase in mean AUC0-12, Day 14” value [1] is reported as 4.6 fold and the “increase in mean AUC0-24, Day 1” value [1] is reported as 6.45 fold. For the same compound, the “increase in mean AUC0-24, Day 14” value [1] was 4.45 fold, the “increase in mean Cmax, Day 1” value [1] was 6.9 fold and the “increase in mean Cmax, Day 14” value [1] was about 4.5 fold. It also gave an AUC0-12 [2] of 741 ng·h/mL, a Cmax [2] of 121 ng/mL and a t1/2 [2] of 3.43 h. For the same compound, the tmax (100 mg BID fasted, Cohort 1, Day 1 AM) was 3.0 h, the AUC0-12 [3] was 1280 ng·h/mL and the AUC0-24 [3] was 1650 ng·h/mL. For the same compound, the Cmax [3] was 194 ng/mL, the t1/2 [3] was 18.8 h and the tmax (100 mg BID fasted, Cohort 1, Day 14) was 3.0 h. For the same compound, the t1/2 (100 mg BID fed, Cohort 2, Day 1 AM, Geo. Mean) was 4.16 h, the AUC0-12 [4] was 470 ng·h/mL and the Cmax [4] was 85.9 ng/mL. It also gave a tmax (100 mg BID fed, Cohort 2, Day 1 AM) of 2.0 h, an AUC0-12 [5] of 714 ng·h/mL and an AUC0-24 [5] of 1160 ng·h/mL. The “AUC0-∞” value [5] was 1090 ng·h/mL, the Cmax [5] was 119 ng/mL and the AUC0-12 [6] was 748 ng·h/mL. For the same compound, the AUC0-24 [6] was 1220 ng·h/mL, the tmax (100 mg BID fed, Cohort 2, Day 1 PM) was 3.0 h and the AUC0-12 [7] was 1050 ng·h/mL. The “AUC0-∞” value [7] was 1380 ng·h/mL, the t1/2 [7] was 5.24 h and the Cmax [8] was 168 ng/mL. It also gave a t1/2 [8] of 5.31 h, a tmax (100 mg BID fed, Cohort 2, Day 7 AM) of 3.0 h and an AUC0-12 [9] of 875 ng·h/mL. For the same compound, the AUC0-24 [9] was 1930 ng·h/mL, the “AUC0-∞” value [9] was 1700 ng·h/mL and the Cmax [9] was 106 ng/mL. For the same compound, the t1/2 [9] was 7.91 h, the Cmax (100 mg BID fed, Cohort 2, Day 7 PM, Mean) was 112 ng/mL and the tmax (100 mg BID fed, Cohort 2, Day 7 PM) was 6.0 h. For the same compound, the RCmax (100 mg BID fed, Cohort 2, Day 14 AM, Day 14/Day 1 accumulation ratio, Geo. Mean) was 1.90, the AUC0-12 [10] was 900 ng·h/mL and the AUC0-24 [10] was 1220 ng·h/mL. For the same compound, the “AUC0-∞” value [10] was 1780 ng·h/mL, the Cmax [10] was 155 ng/mL and the t1/2 [10] was 19.0 h. It also gave an AUC0-12 [11] of 943 ng·h/mL, an AUC0-24 [11] of 1270 ng·h/mL and a Cmax [11] of 168 ng/mL. For the same compound, the t1/2 [11] was 19.6 h, the tmax (100 mg BID fed, Cohort 2, Day 14 AM) was 2.0 h and the “time to peak plasma concentrations (range), Day 1” value (100 mg KAR5585 BID, Part 2 Cohort 1 (fasted state)) was 2.0 to 6.0 h. For the same compound, the “median tmax Day 14” value (100 mg KAR5585 BID, fasted) was 3.0 hour postdose, the “mean peak concentration relative to corresponding peak mean concentration of KAR5585, Day 1” value [12] was “approximately 7.25 fold” and the “mean peak concentration relative to corresponding peak mean concentration of KAR5585, Day 14” value [12] was about 9.1 fold. For the same compound, the “half-life, Day 14” value (100 mg KAR5585 BID, fasted state) was 18.8 h, the “median tmax Day 14” value (100 mg KAR5585 BID, fed) was 3.0 hour postdose and the AUC0-12 [13] was 1620 ng·h/mL. The “AUC0-∞” value [13] was 1980 ng·h/mL, the t1/2 [13] was 4.41 h and the AUC0-12 (200 mg BID fed, Cohort 3, Day 1 AM, Mean) was 1700 ng·h/mL. For the same compound, the tmax (200 mg BID fed, Cohort 3, Day 1 AM) was 3.0 h, the AUC0-24 [14] was 3540 ng·h/mL and the “AUC0-∞” value [14] was 2640 ng·h/mL. For the same compound, the Cmax [14] was 307 ng/mL, the t1/2 [14] was 5.95 h and the AUC0-12 (200 mg BID fed, Cohort 3, Day 1 PM, Mean) was 2000 ng·h/mL. The tmax (200 mg BID fed, Cohort 3, Day 1 PM) was 4.0 h, the RCmax (200 mg BID fed, Cohort 3, Day 7 AM, Day 7/Day 1 accumulation ratio, Mean) was 1.00 and the “AUC0-∞” value [15] was 2610 ng·h/mL. For the same compound, the Cmax [15] was 332 ng/mL, the t1/2 [15] was 4.57 h and the “AUC0-∞” value [16] was 2800 ng·h/mL. It also gave a Cmax [16] of 359 ng/mL, a t1/2 [16] of 4.61 h and a tmax (200 mg BID fed, Cohort 3, Day 7 AM) of 4.0 h. The AUC0-12 [17] was 1490 ng·h/mL, the AUC0-24 [17] was 3620 ng·h/mL and the “AUC0-∞” value [17] was 2270 ng·h/mL. For the same compound, the Cmax [17] was 212 ng/mL, the t1/2 [17] was 6.48 h and the AUC0-12 [18] was 1540 ng·h/mL. The AUC0-24 [18] was 3810 ng·h/mL, the “AUC0-∞” value [18] was 2280 ng·h/mL and the Cmax [18] was 222 ng/mL. For the same compound, the tmax (200 mg BID fed, Cohort 3, Day 7 PM) was 8.0 h, the AUC0-12 [19] was 1670 ng·h/mL and the AUC0-24 [19] was 2200 ng·h/mL. The t1/2 [19] was 24.1 h, the AUC0-12 [20] was 1820 ng·h/mL and the AUC0-24 [20] was 2380 ng·h/mL. It also gave a Cmax [20] of 319 ng/mL, a t1/2 [20] of 25.0 h and a tmax (200 mg BID fed, Cohort 3, Day 14 AM) of 3.0 h. The “AUC0-∞” value [21] was 3400 ng·h/mL, the t1/2 [21] was 3.71 h and the “AUC0-∞” value (400 mg BID fed, Cohort 4, Day 1 AM, Mean) was 3780 ng·h/mL. For the same compound, the tmax (400 mg BID fed, Cohort 4, Day 1 AM) was 3.0 h, the “AUC0-∞” value [22] was 6860 ng·h/mL and the t1/2 [22] was 5.3 h. The tmax (400 mg BID fed, Cohort 4, Day 1 PM) was 4.0 h, the RCmax (400 mg BID fed, Cohort 4, Day 7 AM, Day 7/Day 1 accumulation ratio, Mean) was 2.00 and the “AUC0-∞” value [23] was 7480 ng·h/mL. For the same compound, the Cmax [23] was 960 ng/mL, the t1/2 [23] was 3.89 h and the t1/2 (400 mg BID fed, Cohort 4, Day 7 AM, Mean) was 3.94 h. The tmax (400 mg BID fed, Cohort 4, Day 7 AM) was 4.0 h, the RAUC0-12 (400 mg BID fed, Cohort 4, Day 7 PM, Day 7/Day 1 accumulation ratio, Geo. Mean) was 1.50 and the AUC0-12 [24] was 4360 ng·h/mL. The “AUC0-∞” value [24] was 6450 ng·h/mL, the Cmax [24] was 574 ng/mL and the t1/2 [24] was 5.08 h. For the same compound, the AUC0-12 [25] was 4610 ng·h/mL, the “AUC0-∞” value [25] was 6520 ng·h/mL and the Cmax [25] was 608 ng/mL. For the same compound, the t1/2 [25] was 5.10 h, the tmax (400 mg BID fed, Cohort 4, Day 7 PM) was 6.0 h and the AUC0-12 [26] was 4160 ng·h/mL. The AUC0-24 [26] was 5410 ng·h/mL, the “AUC0-∞” value [26] was 8120 ng·h/mL and the Cmax [26] was 717 ng/mL. It also gave a t1/2 [26] of 30.4 h, an AUC0-12 [27] of 4350 ng·h/mL and a Cmax [27] of 749 ng/mL. For the same compound, the t1/2 [27] was 30.6 h, the tmax (400 mg BID fed, Cohort 4, Day 14 AM) was 3.0 h and the “tmax Day 7 evening dose” value (400 mg KAR5585 BID, fed) was 6 h. For the same compound, the “study day by which steady-state plasma levels were achieved” value (BID oral KAR5585 for 14 days) was at most 7 days.
